The values that follow are results of earlier work, collected in patent publication US6683065B1, “Method of treating body insect infestation” (Host Pharmaceuticals LLC, priority 1999, dated 2004).

The conditions of this data set: at 20° C.

With n-alkanes, the “Surface Tension” value is listed as 37.8^1 dynes/cm.

With n-fluoroalkanes, the “Surface Tension” value was 25.9^1 dynes/cm.
